The text below walks through data of US8278358B2, “Lipoic acid derivatives” (Omnica GmbH, priority 2006, dated 2012).

The nature of data set [1]: Reducing power assay (reduction of Iron-III to Iron-II). The class given is biochemical.
Experimental: The assay is based on the reduction of Iron-III to Iron-II. Results are expressed as % reduction when compared to the control which reduced all Iron-III at a concentration of 5 mg/mL.
Data set [2] can be described thus: Stability in CaCo-2 incubation medium (Free and Total LA/DHLA in medium). To be noted: for Total LA in medium (after NaBH4 reduction) / Free LA in medium: 1 mg LA/ml or 1.46 mg LAORN/ml medium. The class given is in vitro ADME. How it is done: For stability investigations, the incubation medium was incubated at 37° C. for 1 hour. Thereafter, the medium was centrifuged and used for further analysis.

Data set [3] is described as follows: Protection of lutein esters, milling/mixing method, 60° C. for 4 hours. The data set is classed as physicochemical. To be noted: mix method. How it is done: 300 mg lutein esters and 30 mg α-Tocopherol were added to a mortar, completely milled and maintained at a temperature of 60° C. for 4 hours. The lutein content was measured with the UV-Visible spectrophotometric method as described above. […] The lutein content was measured with a UV-Visible spectrophotometer as described above. 300 mg lutein esters and a predetermined amount of lipoic acid were placed in a mortar, milled and then subjected to an elevated temperature of 60° C. for 4 hours. The lutein content was determined by the UV-Visible spectrophotometric method described above.

Data set [4] can be described thus: Inhibition of the autooxidation of linoleic acid. The data set is classed as biochemical. To be noted: 50° C., up to 72 hours. The procedure:
As a positive control (full inhibition) 10 mM butyl-hydroxytoluene (BHT)/L was introduced. Each sample was prepared in 3 replicates. […] Each sample was prepared in 3 replicates. Samples were incubated with light protection at 50° C.

In the next data set the test system is CaCo-2 cells. Kind of data set: CACO-2 absorption test (Free and Total LA/DHLA in cells). The data set is classed as in vitro ADME.

Consider `[BH4-].[Na+]` [Control, NaBH4], for which the “% Reduction compared to Control” value was 22.7% in data set [1] (Conc. 1 mg/mL), 100.0% in data set [1] (Conc. 5 mg/mL) and 100.0% in data set [1] (Conc. 10 mg/mL).
Take `O=C(O)CCCCC1CCSS1` (stereo not drawn) [LA, 1,2-dithiolane-3-pentanoic acid]: the “Total LA in medium (after NaBH4 reduction)” value in data set [2] (60 min) and in data set [2] (Initial) was “bld” throughout. The “Free LA in medium” value was determined as 0.74 mg/mL in data set [2] (60 min, 37° C.) and 0.89 mg/mL in data set [2] (Initial). In addition, in data set [2] (incubation medium, 37° C., 1 hour, recovery after reduction to DHLA), the “stability under the test assay conditions” value was “stable”. In addition, the “Residual Ratio/% of lutein esters” value in data set [3] (300 mg lutein esters, Dosage of LA 3 mg, Content of LA 1.0%) was 42.7%; in data set [3] (Dosage of LA 15 mg, Content of LA 4.8%) it was 46.5%; in data set [3] (Dosage of LA 30 mg, Content of LA 9.1%), 79.5%; in data set [3] (Dosage of LA 60 mg, Content of LA 16.7%), 80.1%; in data set [3] (Dosage of LA 150 mg, Content of LA 33.3%) it was 79.4%; in data set [3] (Dosage of LA 300 mg, Content of LA 50.0%), 82.4%. Besides, the figures for the “% Reduction compared to Control” value in data set [1] (Conc. 1 mg/mL), in data set [1] (Conc. 5 mg/mL) and in data set [1] (Conc. 10 mg/mL) were 7.2%, 22.2% and 24.7%, respectively. The “protection against autooxidation of linoleic acid” value in data set [4] (FIG. 7: 5 mM LA/L, 5 mM ORN/L, 5 mM LA/L + 5 mM ORN/L, 10 mM LAORN/L) is “full protection”; in data set [4] (FIG. 8: 50 mM LA/L, 50 mM ORN/L, 50 mM LA/L + 50 mM ORN/L, 100 mM LAORN/L) it was “full protection”. The “Total LA in cells (after NaBH4 reduction)” value with CaCo-2 cells (CaCo-2 cells incubated 30 min) and in the data set with CaCo-2 cells (CaCo-2 cells incubated 60 min) was “bld” each time.
